This is an account of results in patent publication US9809573B2, “Substituted pyridine derivatives useful as GSK-3 inhibitors” (priority 2013, dated 2017).

For assay [1], the target named is GSK3α (Homo sapiens, UniProt P49840). The assay can be described thus: biochemical. The protocol:
(§1) The kinase assay was performed in V-bottom 384-well plates. […] The reaction was incubated at room temperature for 20 hours and terminated by adding 45 μl of 35 mM EDTA to each sample. The reaction mixture was analyzed on the Caliper LabChip3000 (Caliper, Hopkinton, Mass.) by electrophoretic separation of the unphosphorylated substrate and phosphorylated product. […] Compounds were dissolved at 10 mM in dimethylsulfoxide (DMSO) and evaluated at eleven concentrations. IC50 values were derived by non-linear regression analysis.

The target of assay [2] is GSK3β (Homo sapiens, UniProt P49841). The assay can be described thus: GSK3β kinase assay (Caliper LabChip3000, fluoresceinated peptide substrate). It counts as biochemical. The procedure: as §1
Chain of GSK3β (P49841 whole entry, species assumed): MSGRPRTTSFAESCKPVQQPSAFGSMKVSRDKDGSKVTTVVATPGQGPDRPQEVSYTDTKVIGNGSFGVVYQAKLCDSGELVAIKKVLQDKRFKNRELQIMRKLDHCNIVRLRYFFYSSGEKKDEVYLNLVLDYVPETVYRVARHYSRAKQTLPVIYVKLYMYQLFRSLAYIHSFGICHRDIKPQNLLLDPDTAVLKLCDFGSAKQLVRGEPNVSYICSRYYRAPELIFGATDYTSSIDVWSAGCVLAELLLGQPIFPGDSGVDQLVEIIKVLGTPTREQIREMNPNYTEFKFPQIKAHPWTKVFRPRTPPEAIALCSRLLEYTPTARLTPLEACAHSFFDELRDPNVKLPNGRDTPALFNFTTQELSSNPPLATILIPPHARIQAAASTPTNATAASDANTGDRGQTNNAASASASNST
The subject of assay [3] is pTau. The assay can be described thus: pTau assay (method not described). It counts as cell-based.
Setting [4] is: second value of the cell, 250 pM enzyme, 20 uM ATP, 20 hours at room temperature, read-out: GSK3β/α (nM): GSK3α IC50.
[5] abbreviates: first value of the cell, 250 pM enzyme, 20 uM ATP, 20 hours at room temperature, read-out: GSK3β/α (nM): GSK3β IC50.

Read-outs that look alike come from different tables or passages of the source.

Chain of GSK3α (P49840 whole entry, species assumed): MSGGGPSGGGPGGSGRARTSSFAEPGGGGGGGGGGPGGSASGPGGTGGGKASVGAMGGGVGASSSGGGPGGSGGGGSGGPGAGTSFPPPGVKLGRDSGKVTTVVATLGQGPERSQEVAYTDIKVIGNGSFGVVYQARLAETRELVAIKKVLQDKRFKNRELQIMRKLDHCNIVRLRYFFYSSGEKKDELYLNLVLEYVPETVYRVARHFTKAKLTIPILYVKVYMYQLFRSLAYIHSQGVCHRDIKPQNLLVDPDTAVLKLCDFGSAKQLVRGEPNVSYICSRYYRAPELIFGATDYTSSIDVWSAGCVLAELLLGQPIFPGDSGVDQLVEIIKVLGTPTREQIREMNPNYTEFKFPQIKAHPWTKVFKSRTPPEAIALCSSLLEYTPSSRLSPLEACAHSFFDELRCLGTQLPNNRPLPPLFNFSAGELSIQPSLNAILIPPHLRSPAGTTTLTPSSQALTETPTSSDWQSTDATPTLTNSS

`O=C(Nc1cncc(F)c1)c1ccnc(NC(=O)C2CC2)c1` [Example 12, 2-(Cyclopropanecarboxamido)-N-(5-fluoropyridin-3-yl)isonicotinamide]: the IC50 in assay [1] (setting [4]) was found to be 16 nM; in assay [2] (setting [5]) it was 33 nM; in assay [3] (read-out: pTau) it was 1400 nM.

Take `COc1ccc(-c2ccncc2NC(=O)c2ccnc(NC(=O)C3CC3)c2)c(F)c1` [Example 81, 2-(Cyclopropanecarboxamido)-N-(4-(2-fluoro-4-methoxyphenyl)pyridin-3-yl)isonicotinamide]: the IC50 was 0.58 nM in assay [1] (setting [4]), 1.3 nM in assay [2] (setting [5]) and 31 nM in assay [3] (read-out: pTau).

Turning to `CC(C)C(=O)Nc1cc(C(=O)Nc2cnccc2OCC2(C)CC2)ccn1` [Example 201, 2-isobutyramido-N-(4-((1-methylcyclopropyl)methoxy)pyridin-3-yl)isonicotinamide], the results for the IC50 in assay [1] (setting [4]), in assay [2] (setting [5]) and in assay [3] (read-out: pTau) were 0.4 nM, 1.1 nM and 26 nM, respectively.

On to `O=C(Nc1cnccc1N1C2CCC1CC2)c1ccnc(NC(=O)C2CC2)c1` [Example 60, N-(4-(1s,4s)-7-azabicyclo[2.2.1]heptan-7-yl)pyridin-3-yl)-2-(cyclopropanecarboxamido)isonicotinamide], for which the results for the IC50 in assay [1] (setting [4]), in assay [2] (setting [5]) and in assay [3] (read-out: pTau) were 5.7 nM, 16 nM and 620 nM, respectively.

Regarding `O=C(Nc1cnccc1-c1ccc(C(F)(F)F)cc1F)c1ccnc(NC(=O)C2CC2)c1` [Example 82, 2-(Cyclopropanecarboxamido)-N-(4-(2-fluoro-4-(trifluoromethyl)phenyl)pyridine-3-yl)isonicotinamide], the IC50 in assay [1] (setting [4]) was 4 nM; in assay [2] (setting [5]), 9.6 nM; in assay [3] (read-out: pTau), 200 nM.

As to `O=C(Nc1cnccc1-c1ccc(C(F)(F)F)cc1Cl)c1ccnc(NC(=O)C2CC2)c1` [Example 70, N-(4-(2-chloro-4-(trifluoromethyl)phenyl)pyridin-3-yl)-2-(cyclopropanecarboxamido)isonicotinamide], the IC50 in assay [1] (setting [4]) was 4.5 nM; in assay [2] (setting [5]) it was 7 nM; in assay [3] (read-out: pTau) it was 280 nM.

Consider `O=C(Nc1cnccc1-c1ccccc1)c1ccnc(NC(=O)C2CC2(F)F)c1` (stereo not drawn) [Example 98, 2-(2,2-Difluorocyclopropanecarboxamido)-N-(4-phenylpyridin-3-yl)isonicotinamide], for which the IC50 in assay [1] (setting [4]) stood at 17 nM; in assay [2] (setting [5]), 11 nM; in assay [3] (read-out: pTau) it was 1400 nM.

Regarding `O=C(Nc1cnc2ccccc2c1)c1ccnc(NC(=O)C2CC2)c1` [Example 5, 2-(Cyclopropanecarboxamido)-N-(quinolin-3-yl)isonicotinamide], the IC50 in assay [1] (setting [4]) is 230 nM; in assay [2] (setting [5]), 570 nM; in assay [3] (read-out: pTau), not below 10000 nM.

In the case of `CCOc1ccncc1NC(=O)c1ccnc(NC(=O)C2CCC2)c1` [Example 211, 2-(Cyclobutanecarboxamido)-N-(4-ethoxypyridin-3-yl)isonicotinamide], the IC50 came to 0.9 nM in assay [1] (setting [4]), 2.2 nM in assay [2] and 72 nM in assay [3] (read-out: pTau).

As for `C[C@H]1CN(c2ccncc2NC(=O)c2ccnc(NC(=O)C3CC3)c2)CCO1` (single isomer, unassigned) [Example 78], the IC50 is 0.35 nM in assay [1], 0.99 nM in assay [2] and 18 nM in assay [3] (read-out: pTau (nM)).

For `CC(C)c1ccncc1NC(=O)c1ccnc(NC(=O)C2CC2)c1` [Example 39, 2-(Cyclopropanecarboxamido)-N-(4-isopropylpyridine-3-yl)isonicotinamide], the IC50 in assay [2] amounted to 23 nM; in assay [3] (read-out: pTau), 470 nM.

Regarding `CCC1(c2cc(Cl)ncc2NC(=O)c2ccnc(NC(=O)C(C)C)c2)OCCO1` [Example 191, N-(6-chloro-4-(2-ethyl-1,3-dioxolan-2-yl)pyridin-3-yl)-2-isobutyramidoisonicotinamide], the results for the IC50 in assay [1] (setting [4]), in assay [2] (setting [5]) and in assay [3] (read-out: pTau) were 0.12 nM, 0.08 nM and 12 nM, respectively.

Take `Cn1cnc(NC(=O)c2ccnc(NC(=O)C3CC3)c2)c1` [Example 174, 2-(cyclopropanecarboxamido)-N-(1-methyl-1H-imidazol-4-yl)isonicotinamide]: the results for the IC50 in assay [1] (setting [4]) and in assay [3] (read-out: pTau) were 1200 nM and not below 10000 nM, respectively.

Consider `O=C(Nc1cnccc1-c1ccsc1)c1ccnc(NC(=O)C2CC2)c1` [Example 31, 2-(Cyclopropanecarboxamido)-N-(4-(thiophen-3-yl)pyridin-3-yl)isonicotinamide], for which the IC50 turned out to be 4.4 nM in assay [2] (setting [5]) and 200 nM in assay [3] (read-out: pTau).

For `O=C(Nc1cncnc1)c1ccnc(NC(=O)C2CC2)c1` [Example 178, 2-(Cyclopropanecarboxamido)-N-(pyrimidin-5-yl)isonicotinamide], the values for the IC50 in assay [1] (setting [4]), in assay [2] (setting [5]) and in assay [3] (read-out: pTau) were 12 nM, 14 nM and 1200 nM, respectively.

As for `O=C(Nc1cnccc1-c1ccc(I)cc1)c1ccnc(NC(=O)C2CC2)c1` [Example 169, 2-(cyclopropanecarboxamido)-N-(4-(4-iodophenyl)pyridin-3-yl)isonicotinamide], the IC50 is 1.5 nM in assay [1] (setting [4]), 2.8 nM in assay [2] (setting [5]) and 170 nM in assay [3] (read-out: pTau).

On to `COC(=O)c1cncc(NC(=O)c2ccnc(NC(=O)C3CC3)c2)c1` [Example 101, Methyl 5-(2-(cyclopropanecarboxamido)isonicotinamido)nicotinate], for which the IC50 was found to be 13 nM in assay [1] (setting [4]), 30 nM in assay [2] (setting [5]) and 3100 nM in assay [3] (read-out: pTau).

For the molecule `Cc1ncc(NC(=O)c2ccnc(NC(=O)C3CC3)c2)s1` [Example 177, 2-(cyclopropanecarboxamido)-N-(2-methylthiazol-5-yl)isonicotinamide], the IC50 in assay [2] (setting [5]) turned out to be 61 nM; in assay [3] (read-out: pTau), 3900 nM.

Turning to `O=C(Nc1cnccc1-c1cccnc1)c1ccnc(NC(=O)C2CC2)c1` [Example 32, N-([3,4′-bipyridin]-3′-yl)-2-(cyclopropanecarboxamido)isonicotinamide], the IC50 in assay [2] (setting [5]) amounted to 160 nM; in assay [3] (read-out: pTau) it was 3200 nM.

On to `O=C(Nc1cnc(-c2ccccc2)s1)c1ccnc(NC(=O)C2CC2)c1` [Example 181, 2-(cyclopropanecarboxamido)-N-(2-phenylthiazol-5-yl)isonicotinamide], for which the IC50 in assay [3] (read-out: pTau) is 5500 nM.

As to `O=C(Nc1cnc(-c2ccccn2)s1)c1ccnc(NC(=O)C2CC2)c1` [Example 176, 2-(cyclopropanecarboxamido)-N-(2-(pyridin-2-yl)thiazol-5-yl)isonicotinamide], the IC50 in assay [2] (setting [5]) stood at 650 nM; in assay [3] (read-out: pTau), 5500 nM.

Turning to `COc1ccc(NC(=O)c2ccnc(NC(=O)C3CC3)c2)cn1` [Example 7, 2-(Cyclopropanecarboxamido)-N-(6-methoxypyridin-3-yl)isonicotinamide], the figures for the IC50 in assay [1] (setting [4]) and in assay [3] (read-out: pTau) were 1000 nM and not below 10000 nM, respectively.

`O=C(Nc1cnccc1-c1ccc(Cl)cc1)c1ccnc(NC(=O)C2CC(Cl)C2)c1` (stereo not drawn) [Example 224, N-(4-(4-chlorophenyl)pyridin-3-yl)-2-((1,3-trans)-3-cholorocyclobutanecarboxamido)isonicotinamide]: the IC50 in assay [3] (read-out: pTau) was found to be 15 nM.

`O=C(Nc1cnccc1C1CCCC1)c1ccnc(NC(=O)C2CC2)c1` [Example 36, N-(4-cyclopentylpyridin-3-yl)-2-(cyclopropanecarboxamido)isonicotinamide]: the IC50 in assay [2] is 41 nM; in assay [3] (read-out: pTau), 800 nM.

As to `C=C(C)c1ccncc1NC(=O)c1ccnc(NC(=O)C2CC2)c1` [Example 38, 2-(Cyclopropanecarboxamido)-N-(4-(prop-1-en-2-yl)pyridin-3-yl)isonicotinamide], the values for the IC50 in assay [2] and in assay [3] (read-out: pTau) were 4.4 nM and 80 nM, respectively.

On to `O=C(Nc1cnccc1-c1ccncc1)c1ccnc(NC(=O)C2CC2)c1` [Example 33, N-([4,4′-bipyridin]-3-yl)-2-(cyclopropanecarboxamido)isonicotinamide], for which the IC50 stood at 28 nM in assay [2] (setting [5]) and 670 nM in assay [3] (read-out: pTau).

As for `O=C(Nc1cnccc1C1CCCCC1)c1ccnc(NC(=O)C2CC2)c1` [Example 37, N-(4-cyclohexylpyridin-3-yl)-2-(cyclopropanecarboxamido)isonicotinamide], the results for the IC50 in assay [2] and in assay [3] (read-out: pTau) were 120 nM and 1200 nM, respectively.

As to `O=C(Nc1cncc(-c2ccccc2)c1)c1ccnc(NC(=O)C2CCC2)c1` [Example 213, 2-(cyclobutanecarboxamido)-N-(5-phenylpyridin-3-yl)isonicotinamide], the IC50 in assay [1] (setting [4]) was found to be 2.8 nM; in assay [3] (read-out: pTau) it was 1600 nM.

Regarding `O=C(Nc1cncc(-c2ccccn2)c1)c1ccnc(NC(=O)C2CC2)c1` [Example 128, N-([2,3′-bipyridin]-5′-yl)-2-(cyclopropanecarboxamido)isonicotinamide], the values for the IC50 in assay [1] (setting [4]) and in assay [2] (setting [5]) were 2.6 nM and 0.5 nM, respectively.

Consider `O=C(Nc1cncc(C(F)(F)F)c1)c1ccnc(NC(=O)C2CC2)c1` [Example 150, 2-(cyclopropanecarboxamido)-N-(5-(trifluoromethyl)pyridin-3-yl)isonicotinamide], for which the IC50 in assay [1] (setting [4]) amounted to 17 nM; in assay [2] (setting [5]) it was 88 nM.

For `Cc1ccccc1-c1cncc(NC(=O)c2ccnc(NC(=O)C3CC3)c2)c1` [Example 122, 2-(cyclopropanecarboxamido)-N-(5-(o-tolyl)pyridin-3-yl)isonicotinamide], the IC50 in assay [1] (setting [4]) was 3.3 nM; in assay [2] (setting [5]) it was 7.3 nM.

Take `O=C(Nc1cnccc1-c1ccc(Cl)cc1)c1ccnc(NC(=O)C2CC(Cl)C2)c1` (stereo not drawn) [Example 225, N-(4-(4-chlorophenyl)pyridin-3-yl)-2-((1,3-cis)-3-cholorocyclobutanecarboxamido)isonicotinamide]: the IC50 in assay [3] (read-out: pTau) was determined as 43 nM.
